Data on five compounds can be found in ChEMBL document CHEMBL1154885, “Heat shock protein 90: inhibitors in clinical trials” (J Med Chem, 2010).

Series [1] concerns the target Heat shock protein HSP 90-beta (Homo sapiens, UniProt P08238).
Description: Inhibition of HSP90-mediated client protein HER2 degradation
In the next series the test system is Rattus norvegicus. The series can be described thus: Toxicity in iv dosed rat assessed as maximum tolerated dose. The conditions noted are these: in vivo. Format: organism-based.
A further series has as its system Canis familiaris. The series can be described thus: Toxicity in iv dosed dog assessed as maximum tolerated dose. The conditions noted are these: in vivo. Format: organism-based, Canis lupus familiaris.
A short description of series [2]: Chemical stability assessed as half life. Format: physicochemical.
The nature of series [3]: Clearance in human at 220 mg/m2 administered as DMSO/egg phospholipid formulation. In kind it is ADME, organism-based. The conditions noted are these: in vivo.
Series [4] is described as follows: AUC in human at 220 mg/m2 administered as DMSO/egg phospholipid formulation. The conditions noted are these: plasma. In kind it is ADME, organism-based.
Series [5] in a line: Half life in human at 220 mg/m2 administered as DMSO/egg phospholipid formulation. Format: ADME, organism-based. The conditions noted are these: in vivo.
Series [6] in a line: Apparent volume of distribution in tumor of mouse bearing human A2780 cells at 80 mg/kg, ip administered as DMSO/egg phospholipid formulation. In kind it is ADME, organism-based, Neoplasm. On the set-up: dose 80 mg/kg, route intraperitoneal. The conditions noted are these: in vivo.
A short description of series [7]: Half life in plasma of mouse bearing human A2780 cells at 80 mg/kg, ip administered as DMSO/egg phospholipid formulation. Format: ADME, organism-based. Also on record: dose 80 mg/kg, route intraperitoneal.
A short description of series [8]: Cmax in liver of mouse bearing human A2780 cells at 80 mg/kg, ip administered as DMSO/egg phospholipid formulation. Format: ADME, organism-based. Also on record: dose 80 mg/kg, route intraperitoneal.
Series [9] in a line: Cmax in human at 220 mg/m2 administered as DMSO/egg phospholipid formulation. Format: ADME, organism-based. Conditions: in vivo.
Series [10] can be described thus: Cmax in plasma of mouse bearing human A2780 cells at 80 mg/kg, ip administered as DMSO/egg phospholipid formulation. In kind it is ADME, organism-based. Also on record: dose 80 mg/kg, route intraperitoneal.
Series [11] is described as follows: Half life in liver of mouse bearing human A2780 cells at 80 mg/kg, ip administered as DMSO/egg phospholipid formulation. In kind it is ADME, organism-based. On the set-up: dose 80 mg/kg, route intraperitoneal.
In series [12] the test system is Liver. The series can be described thus: Apparent volume of distribution in liver of mouse bearing human A2780 cells at 80 mg/kg, ip administered as DMSO/egg phospholipid formulation. The conditions noted are these: in vivo. On the set-up: dose 80 mg/kg, route intraperitoneal. Format: ADME, organism-based.
A further series deals with A2780. The series can be described thus: Antitumor activity against human A2780 cells xenografted in mouse at 80 mg/kg, ip administered as DMSO/egg phospholipid formulation. In kind it is functional. The conditions noted are these: route intraperitoneal, read-out: TGI.
Series [13] can be described thus: AUC in liver of mouse bearing human A2780 cells at 80 mg/kg, ip administered as DMSO/egg phospholipid formulation. In kind it is ADME, organism-based. Also on record: dose 80 mg/kg, route intraperitoneal.
A short description of series [14]: AUC in tumor of mouse bearing human A2780 cells at 80 mg/kg, ip administered as DMSO/egg phospholipid formulation. Format: ADME, organism-based, Neoplasm. On the set-up: dose 80 mg/kg, route intraperitoneal.
Series [15] in a line: Half life in tumor of mouse bearing human A2780 cells at 80 mg/kg, ip administered as DMSO/egg phospholipid formulation. Format: ADME, organism-based, Neoplasm. Also on record: dose 80 mg/kg, route intraperitoneal.
Series [16] concerns Homo sapiens. The series can be described thus: Toxicity in human assessed as maximum tolerated dose administered on 3 days schedule administered as DMSO/egg phospholipid formulation. In kind it is organism-based. Conditions: in vivo, 72 h.
Series [17] in a line: AUC in plasma of mouse bearing human A2780 cells at 80 mg/kg, ip administered as DMSO/egg phospholipid formulation. Format: ADME, organism-based. Also on record: dose 80 mg/kg, route intraperitoneal.
Series [18] in a line: Clearance in tumor of mouse bearing human A2780 cells at 80 mg/kg, ip administered as DMSO/egg phospholipid formulation. On the set-up: dose 80 mg/kg, route intraperitoneal. Format: ADME, organism-based, Neoplasm. The conditions noted are these: in vivo.
Another series deals with Plasma. The series can be described thus: Apparent volume of distribution in plasma of mouse bearing human A2780 cells at 80 mg/kg, ip administered as DMSO/egg phospholipid formulation. Format: ADME, organism-based. Also on record: dose 80 mg/kg, route intraperitoneal. Conditions: in vivo.
Series [19] in a line: Cmax in tumor of mouse bearing human A2780 cells at 80 mg/kg, ip administered as DMSO/egg phospholipid formulation. In kind it is ADME, organism-based, Neoplasm. On the set-up: dose 80 mg/kg, route intraperitoneal. The conditions noted are these: read-out: Cmax_tumor.
Series [20] is described as follows: Solubility in water. In kind it is physicochemical.
Series [21] can be described thus: Clearance in plasma of mouse bearing human A2780 cells at 80 mg/kg, ip administered as DMSO/egg phospholipid formulation. In kind it is ADME, organism-based. Also on record: dose 80 mg/kg, route intraperitoneal.
Series [22] deals with Homo sapiens. The series can be described thus: Toxicity in human assessed as maximum tolerated dose administered on daily schedule administered as DMSO/egg phospholipid formulation. The conditions noted are these: in vivo. Format: organism-based.
The test system of a further series is NCI-H1650. The series can be described thus: Antitumor activity against human NCI-H1650 cells xenografted in mouse at 100 mg/kg administered daily for 5 days a week. Format: functional. The conditions noted are these: NCI-H1650, 120 h, read-out: TGI. In general terms: Xenograft models place foreign cells or tissue in a host animal.
Series [23] relates to Liver. The series can be described thus: Clearance in liver of mouse bearing human A2780 cells at 80 mg/kg, ip administered as DMSO/egg phospholipid formulation. In kind it is ADME, organism-based. Also on record: dose 80 mg/kg, route intraperitoneal. The conditions noted are these: in vivo.

Values after ≈ are worked out from the molar mass of the structure shown.

Chain of Heat shock protein HSP 90-beta (P08238 whole entry): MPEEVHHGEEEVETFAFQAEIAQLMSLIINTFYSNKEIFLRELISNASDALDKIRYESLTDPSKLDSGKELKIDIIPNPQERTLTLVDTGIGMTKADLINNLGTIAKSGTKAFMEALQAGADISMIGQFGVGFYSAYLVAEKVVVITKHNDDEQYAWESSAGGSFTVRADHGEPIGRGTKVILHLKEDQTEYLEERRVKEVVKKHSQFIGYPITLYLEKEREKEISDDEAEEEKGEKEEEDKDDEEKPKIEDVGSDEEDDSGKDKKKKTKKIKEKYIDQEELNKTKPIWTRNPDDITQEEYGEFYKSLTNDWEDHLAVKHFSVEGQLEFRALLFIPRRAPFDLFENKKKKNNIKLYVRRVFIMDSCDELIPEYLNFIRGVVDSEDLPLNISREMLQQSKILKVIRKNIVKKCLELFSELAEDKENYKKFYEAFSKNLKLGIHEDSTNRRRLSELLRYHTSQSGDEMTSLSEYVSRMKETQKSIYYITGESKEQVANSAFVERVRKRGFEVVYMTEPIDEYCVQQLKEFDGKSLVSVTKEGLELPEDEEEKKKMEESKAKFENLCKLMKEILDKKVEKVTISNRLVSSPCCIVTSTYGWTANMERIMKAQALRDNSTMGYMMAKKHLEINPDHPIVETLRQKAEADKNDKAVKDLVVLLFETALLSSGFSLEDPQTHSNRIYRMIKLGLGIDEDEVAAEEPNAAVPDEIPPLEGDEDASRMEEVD

The compound `C#CCCCn1c(Sc2cc3c(cc2Br)OCO3)nc2c(N)ncnc21` registered an Activity in [1] of 30 nM.

Consider `CCOP(=O)(CCn1c(Sc2nc3cccc(Cl)c3s2)nc2c(N)ncnc21)OCC`, for which the Activity in series [1] was found to be 30 nM.

In series [1], `COc1ccc(I)c(Sc2nc3c(N)ncnc3n2CCNCC(C)(C)C)c1` came in with an Activity of 30 nM.

On to `CO[C@H]1/C=C\C=C(/C)C(=O)NC2=CC(=O)C(NCCN(C)C)=C(C[C@@H](C)C[C@H](OC)[C@H](O)[C@@H](C)/C=C(\C)[C@@H]1OC(N)=O)C2=O` [ALVESPIMYCIN], for which the MTD with Rattus norvegicus is 12 mg/m2; with Canis familiaris, 8 mg/m2. In [2], the half-life is 0.433 h.

For the compound `C=CCNC1=C2C[C@@H](C)C[C@H](OC)[C@H](O)[C@@H](C)/C=C(\C)[C@H](OC(N)=O)[C@@H](OC)/C=C\C=C(/C)C(=O)NC(=CC1=O)C2=O` [TANESPIMYCIN], the clearance in [3] is 700 mL/min. Besides, the area under the curve (AUC) in series [4] came to 22 µM·h; in series [13], 263 µM·h; in [14], 80 µM·h; in series [17], 68 µM·h. The half-life in series [5] is 3.8 h; in [7], 0.88 h; in series [11], 0.86 h; in series [15] it was 7.5 h; in series [2], 9.8 h. Further, the Vz in series [6] turned out to be 0.34 L; in the series with Liver [12], 0.01 L; with Plasma it was 0.05 L. Moreover, the Cmax was found to be 126 µM in series [8], 7.5 µM in [9], 35 µM in series [10] and 15 µM in series [19]. Besides, the inhibition in vivo at 80 mg/kg in the series with A2780 is 70%. For the same compound, the MTD in the series on Homo sapiens [16] was found to be 220 mg/m2; in the series with Homo sapiens [22], 56 mg/m2. The CL in series [18] was determined as 0.03 L/h; in the series on Liver [23] it was 0.01 L/h. This compound also gave a solubility in [20] of 20 µg/mL (≈ 34.1 µM). In series [21], this compound had an apparent clearance CL/F of 0.667 mL/min. Also, the inhibition in vivo at 100 mg/kg in the series with NCI-H1650 was found to be 30%.

The half-life is how long it takes for the measured level to halve. As a reminder, the clearance is a measure of how efficiently the substance is removed, as volume per time. Read a low clearance as a low capacity for elimination. As a reminder, the AUC is concentration integrated over time. A word on the solubility: it is the concentration that dissolves in the medium under given conditions. Low readings indicate a poorly soluble substance, high ones a readily soluble substance. Usually CL/F stands for the apparent clearance, not corrected for the fraction that reaches the circulation.
